Reference: paper PMC9924091 (Journal of Medicinal Chemistry, 2023)
Where two headings read alike, the source gives them in different places.

Columns and labels:
[1] = molecular target: T1, SARS-CoV-2 PL^pro (Severe acute respiratory syndrome coronavirus 2, UniProt P0DTD1); test: SPE-MS SARS-CoV-2 PL^pro inhibition assay; type: biochemical
T1 construct: PL^pro papain-like protease

[2] = tested on: SARS-CoV-2 virus (Victoria strain) in VeroE6 cells; test: microbe, parasite or virus in culture; type: cell-based
[3] = molecular target: T2, SARS-CoV-2 M^pro (Severe acute respiratory syndrome coronavirus 2, UniProt P0DTD1); type: biochemical; design: M^pro main protease; made in house
[4] = molecular target: T2, SARS-CoV-2 M^pro; settings: M^pro 2.0 μM, inhibitor 10 μM, 20 mM HEPES pH 7.5, 90 min, ambient temperature

Row | Compound | inhibition of SARS-CoV-2 PL^pro (in words) [1] | inhibition of SARS-CoV-2 progression in infected VeroE6 cells (in words) [2] | also measured
1 | C#C[C@H](CCSC)NC(=O)[C@@H]1[C@@H]2[C@H](CN1C(=O)[C@@H](NC(=O)C(F)(F)F)C(C)(C)C)C2(C)C [Compound 14] | None of the tested M^pro inhibitors inhibited SARS-CoV-2 PL^pro | – | –
2 | CSCC[C@@H](C#N)NC(=O)[C@@H]1[C@@H]2[C@H](CN1C(=O)[C@@H](NC(=O)C(F)(F)F)C(C)(C)C)C2(C)C [Compound 15] | None of the tested M^pro inhibitors inhibited SARS-CoV-2 PL^pro | – | fold less efficient inhibition of SARS-CoV-2 progression in infected VeroE6 cells than nirmatrelvir (1) [2]: ~5 fold; EC50 ([2]; Severe acute respiratory syndrome coronavirus 2, Vero C1008): ~11.8 µM; IC50 [3]: 0.89 ± 0.17 µM; fold less efficient inhibition of isolated M^pro (higher IC50) than alkyne 13 [3]: ~6 fold; IC50 ([1]; isolated recombinant SARS-CoV-2 PL^pro, SPE-MS, n = 2, mean ± SD): > 100 µM
3 | C#C[C@H](C[C@@H]1CCNC1=O)NC(=O)[C@@H]1[C@@H]2[C@H](CN1C(=O)COc1ccc(OC(F)(F)F)cc1)C2(C)C [Compound 18] | None of the tested M^pro inhibitors inhibited SARS-CoV-2 PL^pro | did not show any inhibitory activity over the tested concentration range | –
4 | C#C[C@H](C[C@@H]1CCNC1=O)NC(=O)[C@@H]1[C@@H]2[C@H](CN1C(=O)COc1ccc(C(F)(F)F)cc1)C2(C)C [Compound 19] | None of the tested M^pro inhibitors inhibited SARS-CoV-2 PL^pro | did not show any inhibitory activity over the tested concentration range | –
5 | CC1(C)[C@@H]2[C@@H](C(=O)N[C@H](C#N)C[C@@H]3CCNC3=O)N(C(=O)COc3ccc(OC(F)(F)F)cc3)C[C@@H]21 [Compound 20] | None of the tested M^pro inhibitors inhibited SARS-CoV-2 PL^pro | – | –
6 | CC1(C)[C@@H]2[C@@H](C(=O)N[C@H](C#N)C[C@@H]3CCNC3=O)N(C(=O)COc3ccc(C(F)(F)F)cc3)C[C@@H]21 [Compound 21] | None of the tested M^pro inhibitors inhibited SARS-CoV-2 PL^pro | – | –
7 | C#C[C@H](C[C@@H]1CCNC1=O)NC(=O)[C@H](CC(C)C)NC(=O)OCc1ccccc1 [Compound 23] | None of the tested M^pro inhibitors inhibited SARS-CoV-2 PL^pro | did not show any inhibitory activity over the tested concentration range | –
8 | CC(C)(C)[C@H](NC(=O)C(F)(F)F)C(=O)N1C[C@H]2[C@@H]([C@H]1C(=O)N[C@H](C#Cc1ccccc1)C[C@@H]1CCNC1=O)C2(C)C [Compound 27a] | – | – | inhibition of SARS-CoV-2 PL^pro (in words) ([1]; SPE-MS PL^pro inhibition assay): None of the tested M^pro inhibitors inhibited SARS-CoV-2 PL^pro; covalent reaction with M^pro by protein-observed SPE-MS (in words) [4]: reacts covalently
9 | CC(C)(C)[C@H](NC(=O)C(F)(F)F)C(=O)N1C[C@H]2[C@@H]([C@H]1C(=O)N[C@H](C#Cc1ccc([N+](=O)[O-])cc1)C[C@@H]1CCNC1=O)C2(C)C [Compound 27b] | None of the tested M^pro inhibitors inhibited SARS-CoV-2 PL^pro | – | –
10 | CC(C)(C)[C@H](NC(=O)C(F)(F)F)C(=O)N1C[C@H]2[C@@H]([C@H]1C(=O)N[C@H](C#CC(F)(F)F)C[C@@H]1CCNC1=O)C2(C)C [Compound 28] | None of the tested M^pro inhibitors inhibited SARS-CoV-2 PL^pro | – | –
